Results as given in patent US10675317B2, “Use of ginseng extract, ginsenoside and ginsenoside derivative in the preparation of medicine or health care product for treating cytomegalovirus infection disorders” (priority 2015, dated 2020).
Where two headings read alike, the source gives them in different places.

Assays:
Type in all cases: in vivo, Kunming mice
[1] = tested on: HCMV infected mice; test: IL-2 level in serum of HCMV infected mice (ELISA kit); details: for IL-2 level compared with the positive drug control group (in words): ganciclovir 45.5 mg/kg/d as comparator; for IL-2 concentration: 21 days
Protocol: (§1) The mice were injected with HCMV10^−3 (0.1 ml/mouse) through the caudal vein of mouse tails; 0.9% normal saline is injected to the normal control group, 0.1 ml/piece; and intragastric administration is started according to the determined dosage on the second day of infection, with 21 days of medication.
Selecting six mice in each group randomly for sampling, 40 min later after the last administration, picking eyeballs to take blood, and collecting the blood by a centrifugal tube Performing high-speed centrifugation for 5 min at 3000 r/min after blood coagulation, and taking the serum. The IL-2 in the serum is measured according to the manual of an ELISA kit.
1L-2, namely interleukin-2, is also named T cell growth factor (TCGF), is a cell factor with wide biological activity, which is generated by activated CD4+Th1 cells, and can promote the proliferation of Th0 and CTL, thus being an important factor for regulating and controlling immune responses.

[2] = tested on: HCMV infected mice; test: Spleen and thymus gland indexes of HCMV infected mice; details: for Effect on weight of the immune organs of HCMV infected mice (in words): thymus glands and spleens; for Effect on weight of the immune organs of HCMV infected mice (in words) / Spleen indexes / Thymus gland indexes: day 21
Protocol: as §1
(§2) During the experiment. Animals were weighed and the thymus and spleen were weighed on the 21st day of administration, and their indices (thymus index, spleen index, weight of thymus and spleen organs per 10 g body weight (mg)) were measured.
Thymus glands and spleens are important immune organs, with the organ indexes reflecting the strength of immune functions of organisms to a certain degree. The thymus glands have the main functions of generating T-lymphocytes and secreting thymosin, and mainly take part in cellular immunity; and abundant lymphocytes and macrophages are contained in the spleens. The weight of the thymus glands and the spleens is related to functions thereof as well as the quantity of immune cells therein, and the height depends on the proliferation degree of the lymphocytes therein.

[3] = tested on: HCMV infected mice; details: for Level of serum hemolysin antibodies compared with the positive drug control group (in words): HCMV infected mice, ganciclovir 45.5 mg/kg/d as comparator; for Hemolysin (OD value): serum of HCMV infected mice, 540 nm, 21 days
Protocol: as §1
40 min later after the last administration, picking eyeballs to take blood, collecting serum, diluting the serum for 100 times with normal saline, uniformly mixing 1 mL of the diluted serum, 0.5 mL of 5% chicken erythrocyte suspension and 0.5 mL of 10% complement (guinea pig serum), incubating for 30 min In 37° C. incubator, setting 0° C. refrigerator for 30 min to stop the reaction. Centrifugating, taking the supernatant, and then measuring the optical density (OD value) at 540 nm by spectrophotometer.

[4] = tested on: HCMV infected mice; test: Survival rate and weight of HCMV infected mice; details: for Toxic symptoms, death and weight growth of treated HCMV infected mice (in words): 21 days of intragastric administration, compared with model group; for Average animal weight (g) Termination of treatment: HCMV infected mice; for Average animal weight (g) Termination of treatment / Animal number (n) Termination of treatment: 21 days; for Animal number (n) Termination of treatment: surviving of 10 HCMV infected mice
Protocol: 1.3 Virus standard strain HCMVADI69 and the proliferation of species are introduced in October 1999 from Virus Seed Room of Virus Institute in Chinese Academy of Preventive Medicine. […] HEL cultural supernatant reaching +++−++++ in the cell lesions is discarded and lightly washed for 3 times by PBS; double distilled water is added; freeze-thawing is performed for 3 times at −20° C.; vigorous blowing and beating are performed; 10,000 r/min centrifugation is performed at 4° C. for 20 min; and the supernatant is collected to obtain the standard virus strain.
as §1, §2
Recording the number of dead animals in the experimental process.
All the mice are subjected to the medicines continuously for 21 days in the whole experimental process.

[5] = high-dosage group 0.3 mg/kg/d intragastric
[6] = low-dosage group 0.012 mg/kg/d intragastric
[7] = medium-dosage group 0.06 mg/kg/d intragastric
[8] = HCMV infected mice, high-dosage group 0.3 mg/kg/d intragastric
[9] = HCMV infected mice, low-dosage group 0.012 mg/kg/d intragastric
[10] = HCMV infected mice, medium-dosage group 0.06 mg/kg/d intragastric

| Molecule | IL-2 level compared with the model group (in words) [1] | IL-2 level compared with the positive drug control group (in words) [1] | IL-2 concentration [1, 5] | IL-2 concentration [1, 6] | IL-2 concentration [1, 7] | Effect on weight of the immune organs of HCMV infected mice (in words) [2] | Level of serum hemolysin antibodies compared with the positive drug control group (in words) [3] | Hemolysin (OD value) [3, 5] | Hemolysin (OD value) [3, 6] | Hemolysin (OD value) [3, 7] | Toxic symptoms, death and weight growth of treated HCMV infected mice (in words) [4] | Average animal weight (g) Termination of treatment [4, 5] | Average animal weight (g) Termination of treatment [4, 6] | Average animal weight (g) Termination of treatment [4, 7] | Animal number (n) Termination of treatment [4, 5] | Animal number (n) Termination of treatment [4, 6] | Animal number (n) Termination of treatment [4, 7] | other results |
| --- | --- | --- | --- | --- | --- | --- | --- | --- | --- | --- | --- | --- | --- | --- | --- | --- | --- | --- |
| 20(R)-ginsenoside Rg3 8-N-butyrate [Ginsenoside rg3 derivatives] | higher than those of the model group | superior to that of the positive drug control group | 29.32 ± 4.09 pg/mL | 27.99 ± 5.38 pg/mL | 28.62 ± 4.21 pg/mL | obvious weight increasing effect | superior to that of the positive drug control group | 0.19 ± 0.11 OD value | 0.17 ± 0.08 OD value | 0.18 ± 0.07 OD value | mild toxic symptom, less death and good weight growth | 27.7 ± 1.84 g | 26.4 ± 0.18 g | 27.1 ± 0.49 g | 9 | 6 | 7 |  |
| CC(C)=CCC[C@](C)(O)[C@H]1CC[C@]2(C)[C@@H]1[C@H](O)C[C@@H]1[C@@]3(C)CC[C@H](O[C@@H]4O[C@H](CO)[C@@H](O)[C@H](O)[C@H]4O[C@@H]4O[C@H](CO)[C@@H](O)[C@H](O)[C@H]4O)C(C)(C)[C@@H]3CC[C@]12C [Ginsenoside rg3, 20(R)-ginsenoside Rg3] | higher than those of the model group | superior to that of the positive drug control group | 28.64 ± 4.66 pg/mL | 27.02 ± 6.39 pg/mL | 27.19 ± 5.60 pg/mL | obvious weight increasing effect | superior to that of the positive drug control group | 0.18 ± 0.03 OD value | 0.15 ± 0.08 OD value | 0.16 ± 0.05 OD value | mild toxic symptom, less death and good weight growth | 26.6 ± 1.83 g | 25.1 ± 0.11 g | 25.8 ± 0.54 g | 8 | 6 | 6 | Spleen indexes and thymus gland indexes compared with the model group (in words) ([2]; HCMV infected mice): significantly different from those of the model group; Spleen indexes [2, 8]: 0.061 ± 0.021; Thymus gland indexes [2, 8]: 0.031 ± 0.009; Spleen indexes [2, 9]: 0.056 ± 0.045; Thymus gland indexes [2, 9]: 0.027 ± 0.011; Spleen indexes [2, 10]: 0.057 ± 0.013; Thymus gland indexes [2, 10]: 0.029 ± 0.021 |
| Nc1nc(O)c2ncn(COC(CO)CO)c2n1 [Positive drug control group, ganciclovir, reference compound] |  |  |  |  |  |  |  |  |  |  |  |  |  |  |  |  |  | IL-2 concentration ([1]; ganciclovir 45.5 mg/kg/d): 24.54 ± 2.66 pg/mL; Hemolysin (OD value) ([3]; ganciclovir 45.5 mg/kg/d): 0.11 ± 0.04 OD value; Average animal weight (g) Termination of treatment ([4]; ganciclovir 45.5 mg/kg/d): 26.9 ± 3.97 g; Survival number, weight growth and symptom expression compared with the test drug groups (in words) ([4]; ganciclovir 45.5 mg/kg/d): totally approximate to those of the large-dosage groups; Animal number (n) Termination of treatment ([4]; ganciclovir 45.5 mg/kg/d): 8 |
